Source: article PMC3744530, “CTA095, a Novel Etk and Src Dual Inhibitor, Induces Apoptosis in Prostate Cancer Cells and Overcomes Resistance to Src Inhibitors” (PLoS ONE, 2013)

Legend:
[1] = system: pEtk, pSrc, pSTAT3, Myc and BCL2 in PC3-AZD20 cells; experiment: Western blot of pEtk, pSrc, pStat3, Myc and BCL2; type: cell-based, human; conditions: PC3-AZD20, 10 μM
Protocol: (§1) PC3-AZD20 cells were seeded at 10^6 cells/well in 6 well plates overnight. The cells were treated with AZD0530 or CTA095 at 10 μM. Apoptosis was analyzed using Annexin-V FITC apoptosis detection kit. The mRNA levels of Myc and BCL2 were measured using real-time PCR. pEtk, Etk, pSrc, Src, pStat3, Stat3, Myc and BCL2 levels were measured using the corresponding antibodies through a Western blot.
(§2) Figure 12 CTA095 induces apoptosis in Src inhibitor resistant prostate cancer cells through Myc and BCL2 inhibition. PC3-AZD20 (PC3 cell resistant to 20 μM AZD0530) cells were seeded at 10^6 cells/well in 6 well plates overnight. The cells were treated with AZD0530 or CTA095 at 10 μM. Apoptosis was analyzed using Annexin-V FITC apoptosis detection kit (A). The mRNA levels of Myc and BCL2 were measured using real-time PCR (B). pEtk, Etk, pSrc, Src, pStat3, Stat3, Myc and BCL2 levels were measured using the corresponding antibodies through Western blot (C). Columns, mean; bars, standard deviation, n = 3.

[2] = system: BCL2 mRNA in PC3-AZD20 cells; experiment: Real-time PCR of BCL2 mRNA; type: cell-based, human; conditions: PC3-AZD20, 10 μM, RT-PCR
Protocol: as §1, §2

[3] = system: STAT3 phosphorylation in PC3 cells; experiment: Western blot of STAT3 phosphorylation; type: cell-based, human; conditions: 24 h
Protocol: (§3) Western blotting was performed as described previously. Proteins were detected using the following antibodies: β-actin (Sigma-Aldrich, Saint Louis, MO), Etk (Santa Cruz Inc., Santa Cruz, CA), pEtk; Src, pSrc; Stat3, pStat3. For phospho-Etk, cells were pre-treated with 100 μM pervanadate for 15 min before harvest.
(§4) Figure 4 Inhibition of cell signaling in PC3 cells following treatment with CTA095. Cells were grown in 10 mm plate to 50% confluence and treated with CTA095. Cells were harvested after 24 h. pEtk, Etk, pSrc, Src, pStat3, Stat3, pAkt and Akt levels were measured using the corresponding antibodies by Western blot. One of three similar experiments depicted.

Etk = biological target: T1, Etk (Homo sapiens, UniProt P51813); experiment: Etk autophosphorylation assay (in vitro kinase assay); type: biochemical; conditions: purified Etk, 33P-ATP, 30 min
T1 construct: purchased Millipore Inc (Dundee, UK)
T1 sequence (P51813 1-675): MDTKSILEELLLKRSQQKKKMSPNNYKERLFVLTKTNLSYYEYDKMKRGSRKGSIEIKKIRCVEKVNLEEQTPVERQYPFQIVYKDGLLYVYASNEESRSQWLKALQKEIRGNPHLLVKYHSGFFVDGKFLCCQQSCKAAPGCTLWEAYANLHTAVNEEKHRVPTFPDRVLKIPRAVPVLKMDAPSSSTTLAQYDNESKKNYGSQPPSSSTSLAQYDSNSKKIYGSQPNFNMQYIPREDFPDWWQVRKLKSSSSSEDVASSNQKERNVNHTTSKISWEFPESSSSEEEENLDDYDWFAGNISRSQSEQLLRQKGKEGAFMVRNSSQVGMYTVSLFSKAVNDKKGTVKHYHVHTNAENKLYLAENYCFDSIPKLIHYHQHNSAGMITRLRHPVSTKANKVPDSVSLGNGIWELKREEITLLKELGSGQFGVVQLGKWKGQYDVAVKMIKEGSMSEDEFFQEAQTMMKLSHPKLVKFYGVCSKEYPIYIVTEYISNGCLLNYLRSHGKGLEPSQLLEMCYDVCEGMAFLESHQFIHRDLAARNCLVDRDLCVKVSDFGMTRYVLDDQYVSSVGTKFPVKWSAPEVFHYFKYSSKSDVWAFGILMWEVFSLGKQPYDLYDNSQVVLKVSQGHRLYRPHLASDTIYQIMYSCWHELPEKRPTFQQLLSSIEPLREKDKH
Protocol: Etk autophosphorylation activity was measured by an in vitro kinase assay. Briefly, purified Etk (100 ng) was mixed with CTA095 in the kinase assay buffer (20 mM Hepes pH 7.55, 10 mM MgCl2, 10 mM MnCl2, 1 mM DTT, 500 μM Na3VO4). The cold ATP (5 µM) and hot r-^33P-ATP (5 µCi) were added to the mixture and the kinase reaction was performed at 30°C for 30 min. The reactions were terminated with a 4X SDS-PAGE sample buffer, and then loaded onto an 8% SDS-polyacrylamide gel for electrophoresis. The gel was vacuum dried and the ETK auto kinase activity was analyzed with a phosphoimager (Biorad).
The Btk family of non-receptor tyrosine kinases is characterized by the presence of an autophosphorylation site within the non-catalytic Src homology 3 (SH3) domain. Thus, it was also important to determine the ability of CTA095 to inhibit Etk autophosphorylation. Therefore, an in vitro Etk autophosphorylation assay was established in which purified Etk was mixed with CTA095 in the presence of ^33P-ATP. After 30 min, the reaction was terminated, and the samples were loaded onto an SDS-polyacrylamide gel for electrophoresis. After drying, the gel was analyzed with a phosphoimager.

Yes = biological target: T2, Yes (Homo sapiens, UniProt P07947); experiment: Kinase inhibition assay (TLC, 33P-ATP); type: biochemical
T2 construct: purchased Millipore Inc (Dundee, UK)
T2 sequence (P07947 whole entry): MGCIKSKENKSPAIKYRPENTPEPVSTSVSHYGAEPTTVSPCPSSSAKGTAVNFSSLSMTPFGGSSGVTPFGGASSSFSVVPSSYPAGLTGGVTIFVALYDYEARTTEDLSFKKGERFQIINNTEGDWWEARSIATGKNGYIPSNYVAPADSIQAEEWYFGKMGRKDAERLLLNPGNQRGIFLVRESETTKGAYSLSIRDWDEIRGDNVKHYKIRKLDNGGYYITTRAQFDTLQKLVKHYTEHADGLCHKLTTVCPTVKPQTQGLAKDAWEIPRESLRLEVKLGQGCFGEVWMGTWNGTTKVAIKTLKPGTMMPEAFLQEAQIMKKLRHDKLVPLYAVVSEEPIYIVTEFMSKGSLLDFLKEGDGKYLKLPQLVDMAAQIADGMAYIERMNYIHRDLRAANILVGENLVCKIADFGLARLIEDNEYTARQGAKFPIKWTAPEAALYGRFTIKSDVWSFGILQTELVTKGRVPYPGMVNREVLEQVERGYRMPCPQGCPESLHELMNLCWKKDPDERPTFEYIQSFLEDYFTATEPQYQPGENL
Protocol: (§5) Kinase inhibition was measured using thin-layer-chromatography (TLC). Briefly, purified kinases (20 nM), the corresponding substrate (500 µM, TSFYGRH for Etk, YIYGSFK for the other kinases), and CTA095 (0–10 µM) were incubated in a kinase reaction (100 mM Hepes, pH 7.4, 10 mM MnCl2, 10 mM MgCl2, 1 mM DTT) for 5 min, and the reaction was started by adding 5 μCi ^33P-labeled ATP. The reaction (10 µl) was incubated at room temperature for 1 h and was stopped by adding 10 μL H3PO4. The radioactivity of the peptide substrate was analyzed using TLC as previously described.
(§6) Having isolated a small molecule that inhibits Etk, the next logical step was to determine its specificity for this enzyme. To accomplish this, purified Etk, Btk, Src and Yes were incubated in a kinase reaction buffer with CTA095 (0–1 μM) in the presence of ^33P-labeled ATP and a peptide (YIYGSFK), previously shown to be an excellent substrate for both BTK and Src family kinases. The kinase activity was measured using TLC technique.

Src = biological target: T3, Src (Homo sapiens, UniProt P12931); experiment: Kinase inhibition assay (TLC, 33P-ATP); type: biochemical
T3 construct: purchased Millipore Inc (Dundee, UK)
T3 sequence (P12931 whole entry): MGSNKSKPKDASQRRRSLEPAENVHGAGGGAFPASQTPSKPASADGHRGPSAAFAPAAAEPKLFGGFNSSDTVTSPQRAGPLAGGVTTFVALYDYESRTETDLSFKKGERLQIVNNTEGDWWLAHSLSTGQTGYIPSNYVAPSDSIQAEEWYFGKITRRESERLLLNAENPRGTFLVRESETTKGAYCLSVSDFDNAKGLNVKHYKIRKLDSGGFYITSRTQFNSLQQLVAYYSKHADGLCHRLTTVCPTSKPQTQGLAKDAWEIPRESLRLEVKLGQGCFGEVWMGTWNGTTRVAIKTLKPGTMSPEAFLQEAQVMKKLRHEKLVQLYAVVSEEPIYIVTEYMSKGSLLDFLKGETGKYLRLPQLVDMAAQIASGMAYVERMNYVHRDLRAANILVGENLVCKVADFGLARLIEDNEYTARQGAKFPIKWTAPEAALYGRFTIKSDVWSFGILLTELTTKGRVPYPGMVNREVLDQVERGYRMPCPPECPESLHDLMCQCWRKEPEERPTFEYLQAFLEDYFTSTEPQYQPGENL
Protocol: as §5, §6

[4] = system: Src phosphorylation in PC3-Etk cells; experiment: Western blot of Src phosphorylation in intact cells; type: cell-based, human; conditions: 5 μM and 10 μM, 24 h
Protocol: as §3, §4

PC3-AZD20 cells = experiment: Annexin-V FITC apoptosis in Src inhibitor resistant cells; type: cell-based, human; conditions: 10 μM
Protocol: as §1, §2

[5] = system: Etk phosphorylation in PC3-Etk cells; experiment: Western blot of Etk phosphorylation in intact cells; type: cell-based, human; conditions: 5 μM and 10 μM, 24 h
Protocol: as §3, §4

IC50 (Yes): > 10000 nM
IC50 (Src; TLC assay): 120 nM
IC50 (Src; TLC, peptide YIYGSFK, 33P-ATP): ~120 nM
Compound: O=c1[nH]c2cc3nc(-c4ccc5oc6ccccc6c5c4)n(CCCN4CCCCC4)c3cc2nc1-c1ccccc1 [CTA095, 2-(dibenzo[b,d]furan-2-yl)-7-phenyl-1-(3-(piperidin-1-yl)propyl)-1H-imidazo[4,5-g]quinoxalin-6(5H)-one]
pEtk, pSrc, pSTAT3, Myc and BCL2 protein levels [1]: all down regulated
BCL2 mRNA level [2]: significantly down regulated
STAT3 phosphorylation [3]: also inhibited
Etk autophosphorylation (Etk): inhibit Etk autophosphorylation in a concentration dependent manner
Src phosphorylation [4]: significantly inhibited
apoptosis in PC3-AZD20 cells (PC3-AZD20 cells): Massive apoptosis was induced
Etk phosphorylation [5]: significantly inhibited
